Test results from the supplement of paper PMC10307832.

Columns and labels:
Test in all cases: relative viability (nuclei count vs DMSO), 5 days (fraction); higher = more cells survive
[1] = compound: COc1cc2nc(N3CCCN(C)CC3)nc(NC3CCN(Cc4ccccc4)CC3)c2cc1OC + Nc1nc2[nH]cc(CCc3ccc(C(=O)N[C@@H](CCC(=O)O)C(=O)O)cc3)c2c(=O)[nH]1 [Pemetrexed] (partner 0.2 µM)
In short: (§1)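 Relative viability divides the nuclei count in treated wells by that in vehicle wells. Lung cancer cell lines were seeded in 1536-well plates, dosed by pin tool the next day, and fixed and stained after 5 days in one step with final 0.05% Triton X-100, 1% formaldehyde and 1 ug/ml Hoechst. Dosing was a single drug or a fixed anchor-drug dose plus five library-drug doses (not always all listed) in √10 steps, and values are medians of duplicate plates imaged at 4×.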

[2] = compound: COc1cc2nc(N3CCCN(C)CC3)nc(NC3CCN(Cc4ccccc4)CC3)c2cc1OC + C[C@]1(O)C[C@@H](c2nc(-c3ccc4ccc(-c5ccccc5)nc4c3)c3c(N)nccn32)C1 [Linsitinib] (partner 1 µM)
In short: as §1

[3] = compound: COc1cc2nc(N3CCCN(C)CC3)nc(NC3CCN(Cc4ccccc4)CC3)c2cc1OC + Cc1nc(Nc2ncc(C(=O)Nc3c(C)cccc3Cl)s2)cc(N2CCN(CCO)CC2)n1 [Dasatinib] (partner 0.075 µM)
In short: as §1

[4] = compound: Cc1cc([C@@H](C)Nc2ccccc2C(=O)O)c2nc(N3CCOCC3)cc(=O)n2c1 [AZD6482] + CS(=O)(=O)CCNCc1ccc(-c2ccc3ncnc(Nc4ccc(OCc5cccc(F)c5)c(Cl)c4)c3c2)o1 [Lapatinib] (partner 2 µM)
In short: as §1

| Cell Line | relative viability ([1]; first compound 0.6325 µM) | relative viability ([1]; first compound 6.325 µM) | relative viability ([2]; first compound 0.2 µM) | relative viability ([2]; first compound 0.6325 µM) | relative viability ([2]; first compound 2 µM) | relative viability ([2]; first compound 6.325 µM) | relative viability ([3]; first compound 0.2 µM) | relative viability ([3]; first compound 0.6325 µM) | relative viability ([3]; first compound 2 µM) | relative viability ([3]; first compound 6.325 µM) | relative viability ([1]; first compound 0.2 µM) | relative viability ([1]; first compound 2 µM) | relative viability ([4]; first compound 0.08 µM) | relative viability ([4]; first compound 0.253 µM) | relative viability ([4]; first compound 0.8 µM) | relative viability ([4]; first compound 2.53 µM) | relative viability ([4]; first compound 8 µM) |
| --- | --- | --- | --- | --- | --- | --- | --- | --- | --- | --- | --- | --- | --- | --- | --- | --- | --- |
| NCI-H1648 | 0.904 | 0.791 |  |  |  |  |  |  |  |  |  |  |  |  |  |  |  |
| SK-MES-1 | 0.887 | 0.495 | 1 | 1 | 1.08 | 1.01 | 0.41 | 0.374 | 0.386 | 0.171 | 1.06 | 0.904 | 0.363 | 0.366 | 0.367 | 0.301 | 0.319 |
| HCC-366 | 0.151 | 0.164 | 0.68 | 0.642 | 0.694 | 0.586 | 0.697 | 0.599 | 0.504 | 0.571 | 0.186 | 0.171 | 0.9 | 0.97 | 1.11 | 0.579 | 0.532 |
| 201T | 0.334 | 0.279 | 1.06 | 1.03 | 1.04 | 1 | 0.573 | 0.495 | 0.549 | 0.557 | 0.31 | 0.335 | 1.02 | 1.04 | 1.17 | 0.843 | 0.993 |
| HCC-827 | 0.277 | 0.235 | 1 | 0.969 | 0.967 | 0.941 | 0.398 | 0.237 | 0.258 | 0.379 | 0.259 | 0.215 | 0.164 | 0.174 | 0.196 | 0.177 | 0.177 |
| NCI-H647 | 0.199 | 0.152 | 1.17 | 1.03 | 1.14 | 0.599 | 0.201 | 0.233 | 0.192 | 0.149 | 0.161 | 0.19 | 0.843 |  | 0.804 | 0.524 | 0.744 |
| NCI-H2023 | 0.254 | 0.144 | 0.767 | 0.643 | 0.7 | 0.405 | 0.57 | 0.558 | 0.56 | 0.237 | 0.161 | 0.248 | 0.729 | 0.74 | 0.798 | 0.424 | 0.422 |
| NCI-H441 | 0.264 | 0.276 | 0.527 |  | 0.515 | 0.553 | 0.602 | 0.616 | 0.532 | 0.599 | 0.256 | 0.246 |  |  |  |  |  |
| NCI-H1703 |  |  | 0.593 | 0.398 | 0.533 | 0.69 |  |  |  |  |  |  | 1.11 | 0.871 | 0.654 | 0.448 | 0.484 |
| Calu-6 |  |  | 0.881 | 0.903 | 1.02 | 0.962 |  |  |  |  |  |  | 1.05 | 1.07 | 1.14 | 0.879 | 0.953 |
| HCC-44 | 0.636 | 0.646 | 0.688 | 0.549 | 0.786 | 0.695 |  |  |  |  | 0.67 | 0.611 | 0.909 | 1.06 | 1.13 | 1.1 | 0.882 |
| NCI-H1299 |  |  | 1.01 | 0.939 | 1.1 | 0.97 |  |  |  |  |  |  | 0.94 | 0.956 | 1.11 | 0.948 | 0.983 |
| NCI-H727 |  |  | 0.316 | 0.277 | 0.369 | 0.221 | 0.302 | 0.461 | 0.452 | 0.322 |  |  | 0.659 | 0.843 | 0.951 |  | 0.667 |
| LCLC-103H | 0.455 | 0.47 | 1.1 | 1.13 | 1.28 | 1.04 | 0.394 | 0.344 | 0.532 | 0.479 | 0.495 | 0.443 |  |  |  |  |  |
| ABC-1 |  |  | 0.815 | 0.66 | 0.871 | 0.936 | 0.531 | 0.525 | 0.568 | 0.581 |  |  | 1.07 | 1.16 | 1.07 | 1.03 | 0.932 |
| NCI-H1650 | 0.407 | 0.313 |  |  |  |  | 0.28 | 0.367 | 0.327 | 0.233 | 0.389 | 0.441 | 0.754 |  | 0.688 | 0.602 | 0.681 |
| ChaGo-K-1 | 0.256 | 0.264 |  |  |  |  | 0.514 | 0.617 | 0.592 | 0.584 | 0.255 | 0.262 |  |  |  |  |  |
| SW 900 | 0.504 | 0.505 |  |  |  |  | 0.411 | 0.578 | 0.654 | 0.498 | 0.484 | 0.491 |  |  |  |  |  |
| A549 |  |  | 0.648 | 0.549 | 0.713 | 0.684 |  |  |  |  |  |  | 0.944 | 0.891 | 0.913 | 0.485 | 0.571 |
| NCI-H2342 | 0.742 | 0.761 |  |  |  |  | 0.34 | 0.295 | 0.311 | 0.312 | 0.81 | 0.741 |  |  |  |  |  |
| NCI-H2170 | 0.26 | 0.274 |  |  |  |  | 0.658 | 0.594 | 0.638 | 0.583 | 0.256 | 0.271 | 0.245 | 0.249 | 0.303 | 0.248 | 0.295 |
| NCI-H1623 |  |  |  |  |  |  | 0.517 | 0.604 | 0.507 | 0.524 |  |  |  |  |  |  |  |
| NCI-H522 | 0.924 | 0.78 |  |  |  |  | 0.963 | 1.15 | 1.02 | 0.92 | 1.05 | 1.09 |  |  |  |  |  |
| IA-LM |  |  | 0.724 | 0.5 | 0.661 | 0.458 |  |  |  |  |  |  | 0.898 | 1.13 | 0.903 |  | 0.626 |
| EBC-1 |  |  | 0.887 | 0.879 | 1.09 | 0.753 |  |  |  |  |  |  | 0.184 | 0.196 | 0.211 | 0.218 | 0.216 |
